This note sets out measurements from patent publication EP3906926A1, “PROLINE HYDROXYLASE INHIBITORS FOR USE IN THE SKELETAL MUSCLE REGENERATION” (Policlinico San Donato S.p.A.- Istituto di Ricovero e Cura …, priority 2020, dated 2021).

Structures are written as SMILES.

Type in all cases: cell-based, murine
Assay [1] relates to WNT7a. Nature of the assay: qPCR of WNT7a gene expression. Conditions: IOX2 or FG-4592 treatment. The method, then: (§1) Total RNA was isolated using ReliaPrep™ RNA Miniprep Systems (Promega), and reverse transcribed to cDNA using the iScript cDNA synthesis kit (BioRad), according to the Manufacturer's instructions. Real-Time Quantitative PCR was performed on 10 ng of cDNA template, 0.2 µM primers, and GoTaq® qPCR Master Mix (Promega) in 20 µl final volume using a StepOnePlus® Real-Time PCR System (Applied Biosystem). […] RPL13 was used as the housekeeping gene. The amplification program consisted in an initial denaturation at 95°C for 3 minutes, followed by 40 cycles of 5 seconds each at 95°C and 30 seconds at 57°C; WNT7a was amplified at 53°C. Relative quantification of target genes was performed in triplicate and calculated by the equation 2^-ΔΔCt.
(In qPCR the cycle at which signal appears reflects the starting amount.)

For assay [2], the system named is HIF-1α. Nature of the assay: Western blot of HIF-1α nuclear translocation. Conditions: IOX2 or FG-4592 for 24 hours, vs untreated control; Lamin A/C housekeeper. The method, then:
(§2) For nuclei separation, 5 x 10^6 cells were collected after enzymatic digestion with trypsin (Merck), centrifuged at the maximum speed, resuspended in 400 µl of Buffer A (10 mM KCl, 0.1 mM EDTA, 1 mM DTT, 10 mM Hepes, pH 7.9), containing protease and phosphatase inhibitors cocktail (Merck), and incubated on ice for 20 minutes. Then, 10% NP40 was added to the cell suspension, mixed for 40 seconds, and centrifuged 40 seconds at the maximum speed. After centrifugation, the pellet was resuspended in 80 µl of Buffer C (0.4M NaCl, 1 mM EDTA, 1 mM DTT, 20 mM Hepes, pH 7.9), containing a protease and phosphatase inhibitors cocktail, and then mixed for 30 minutes at 4°C at the maximum speed. Finally, the nuclear suspension was centrifuged for 5 minutes at 4°C at the maximum speed, collected and transferred in a new tube. The total protein content was determined with the BCA Protein Assay Kit (Pierce), according to the manufacturer's instructions.
Proteins were denaturated by boiling for 10 minutes in sample buffer (0.6 g/100 mL Tris, 2 g/100 mL SDS, 10% glycerol, 1% 2-mercaptoethanol, pH 6.8) and loaded into 10% SDS-PAGE gel, then transferred onto a nitrocellulose membrane (Trans-blot, Bio-Rad Laboratories) by electroblotting. Nitrocellulose membranes were incubated with a blocking solution containing 5% (w/v) non-fat dry milk or 5% (w/v) BSA (Merck) in Tris-buffer saline with 0.1% Tween® 20 (TBS-T) for 1 hour. […] Membranes were washed three times for 10 minutes with TBS-T, and then incubated with the appropriate anti-mouse, anti-rabbit, or anti-goat HRP-conjugated secondary antibodies (Dako, Agilent Technologies), 1:2000 dilution, for 1 hour at room temperature. After three washes for 10 minutes with TBS-T, the immunoreactive bands were visualized using the enhanced chemiluminescence detection kit reagents (ECL Advance, GeHealthcare), according to the manufacturer's instructions.
as §2, with “For total proteins extraction, 7.5 x 10^4 cells were seeded and harvested at 7th days of skeletal muscle differentiation, as previously described. Cells were collected after enzymatic digestion with trypsin (Merck), lysed by sonication and centrifuged at 800 xg for 10 minutes. Supernatant was used to determine total protein content with the BCA Protein Assay Kit (Pierce), according to the manufacturer's instructions. For” for “For”, “(0.4 M” for “(0.4M”
Background: In western blotting, separated proteins are transferred to a membrane and probed.

Assay [3] has as its system MHC. Nature of the assay: qPCR of MHC during differentiation. Conditions: day 7 of differentiation, IOX2 or FG-4592 pre-treated myoblasts. The method, then:
as §1
as §1, with “ReliaPrepTM” for “ReliaPrep™”, “2-ΔΔCt.” for “2^-ΔΔCt.”

In assay [4] the test system is MyoD. Put plainly: Western blot of MyoD nuclear localization in WNT7a-KO versus wild type myoblasts. Conditions: WNT7a-KO vs wild type cells, after 24 h inhibitor pre-treatment. The method, then: as §2
Proteins were denaturated by boiling for 10 minutes in sample buffer (0.6 g/100 mL Tris, 2 g/100 mL SDS, 10% glycerol, 1% 2-mercaptoethanol, pH 6.8) and loaded into 10% SDS-PAGE gel, then transferred onto a nitrocellulose membrane (Trans-blot, Bio-Rad Laboratories) by electroblotting. […]
Therefore, WNT7a silencing was conducted by Crispr/Cas9 genome editing in C2C12 murine myoblasts and the effects on myogenesis were evaluated.

For the compound `Cc1nc(C(=O)NCC(=O)O)c(O)c2ccc(Oc3ccccc3)cc12` [FG-4592, Roxadustat], in assay [1], the “increase in WNT7a gene expression” value is 2.3 fold. For the same compound, the “HIF-1α nuclear translocation, protein increase” value in assay [2] is given as 15 fold. Besides, in assay [3], the “enhancement of MHC” value worked out at 2.3 fold. The “decrease of MyoD nuclear localization” value in assay [4] is 42%.
Take `O=C(O)CNC(=O)c1c(O)c2ccccc2n(Cc2ccccc2)c1=O` [IOX2]: the “increase in WNT7a gene expression” value in assay [1] worked out at 1.4 fold. Further, in assay [2], the “HIF-1α nuclear translocation, protein increase” value is on record as 8.8 fold. Further, in assay [3], the “enhancement of MHC” value is reported as 2.2 fold. Further, in assay [4], the “decrease of MyoD nuclear localization” value is “no significant changes”.
